{"source": "the supplement of paper PMC8882468", "data": [{"tested_on": "HCI-002 (organoid from a triple-negative breast cancer xenograft)", "assay": "CTG-3D luminescence at 96 h relative to day-0 seeding control (ratio to day 0); higher = more growth / less cytotoxicity; PDxO 3D drug screen, 96 h, CTG-3D normalised to day-0 seeding control.", "conditions": "0.005 µM; days in culture: 209", "values": [{"smiles": "O=C(/C=C/c1cccnc1)NCCCCC1CCN(C(=O)c2ccccc2)CC1", "note": "[FK866]", "CTG-3D luminescence at 96 h": 1.05}, {"smiles": "CCc1c2c(nc3ccc(O)cc13)-c1cc3c(c(=O)n1C2)COC(=O)[C@]3(O)CC", "note": "[SN-38]", "CTG-3D luminescence at 96 h": 0.962}, {"smiles": "CCN1CCN(Cc2ccc(Nc3ncc(F)c(-c4cc(F)c5nc(C)n(C(C)C)c5c4)n3)nc2)CC1", "note": "[abemaciclib]", "CTG-3D luminescence at 96 h": 2.4}, {"smiles": "C=CCn1c(=O)c2cnc(Nc3ccc(N4CCN(C)CC4)cc3)nc2n1-c1cccc(C(C)(C)O)n1", "note": "[adavosertib]", "CTG-3D luminescence at 96 h": 2.11}]}, {"tested_on": "HCI-002", "assay": "CTG-3D luminescence at 96 h relative to day-0 seeding control (ratio to day 0); higher = more growth / less cytotoxicity; PDxO 3D drug screen, 96 h, CTG-3D normalised to day-0 seeding control.", "conditions": "0.005 µM; days in culture: 227", "values": [{"smiles": "CC(C)(C(=O)NCC(F)(F)C(F)(F)F)C(=O)N[C@@H]1C(=O)Nc2ccccc2-c2ccccc21", "CTG-3D luminescence at 96 h": 5.89}, {"smiles": "CCN(c1cc(C#CCN2CCOCC2)cc(C(=O)NCc2c(C)cc(C)[nH]c2=O)c1C)[C@H]1CC[C@H](N(C)CCOC)CC1", "CTG-3D luminescence at 96 h": 4.63}, {"smiles": "NC(=O)Nc1cc(-c2cccc(F)c2)sc1C(=O)N[C@H]1CCCNC1", "note": "[AZD7762]", "CTG-3D luminescence at 96 h": 5.18}, {"smiles": "O=C(/C=C/c1cccnc1)NCCCCC1CCN(C(=O)c2ccccc2)CC1", "note": "[FK866]", "CTG-3D luminescence at 96 h": 3.02}, {"smiles": "CCc1c2c(nc3ccc(O)cc13)-c1cc3c(c(=O)n1C2)COC(=O)[C@]3(O)CC", "note": "[SN-38]", "CTG-3D luminescence at 96 h": 1.89}, {"smiles": "CCN1CCN(Cc2ccc(Nc3ncc(F)c(-c4cc(F)c5nc(C)n(C(C)C)c5c4)n3)nc2)CC1", "note": "[abemaciclib]", "CTG-3D luminescence at 96 h": 4.76}, {"smiles": "C=CCn1c(=O)c2cnc(Nc3ccc(N4CCN(C)CC4)cc3)nc2n1-c1cccc(C(C)(C)O)n1", "note": "[adavosertib]", "CTG-3D luminescence at 96 h": 6.07}]}, {"tested_on": "HCI-002", "assay": "CTG-3D luminescence at 96 h relative to day-0 seeding control (ratio to day 0); higher = more growth / less cytotoxicity; PDxO 3D drug screen, 96 h, CTG-3D normalised to day-0 seeding control.", "conditions": "0.1 µM; days in culture: 62", "values": [{"smiles": "CC(C)(C(=O)NCC(F)(F)C(F)(F)F)C(=O)N[C@@H]1C(=O)Nc2ccccc2-c2ccccc21", "CTG-3D luminescence at 96 h": 2.74}, {"smiles": "CCN(c1cc(C#CCN2CCOCC2)cc(C(=O)NCc2c(C)cc(C)[nH]c2=O)c1C)[C@H]1CC[C@H](N(C)CCOC)CC1", "CTG-3D luminescence at 96 h": 3.68}, {"smiles": "NC(=O)Nc1cc(-c2cccc(F)c2)sc1C(=O)N[C@H]1CCCNC1", "note": "[AZD7762]", "CTG-3D luminescence at 96 h": 2.92}, {"smiles": "O=C(/C=C/c1cccnc1)NCCCCC1CCN(C(=O)c2ccccc2)CC1", "note": "[FK866]", "CTG-3D luminescence at 96 h": 0.0472}, {"smiles": "CCc1c2c(nc3ccc(O)cc13)-c1cc3c(c(=O)n1C2)COC(=O)[C@]3(O)CC", "note": "[SN-38]", "CTG-3D luminescence at 96 h": 0.53}, {"smiles": "CCN1CCN(Cc2ccc(Nc3ncc(F)c(-c4cc(F)c5nc(C)n(C(C)C)c5c4)n3)nc2)CC1", "note": "[abemaciclib]", "CTG-3D luminescence at 96 h": 1.73}, {"smiles": "C=CCn1c(=O)c2cnc(Nc3ccc(N4CCN(C)CC4)cc3)nc2n1-c1cccc(C(C)(C)O)n1", "note": "[adavosertib]", "CTG-3D luminescence at 96 h": 2.4}]}, {"tested_on": "HCI-002", "assay": "CTG-3D luminescence at 96 h relative to day-0 seeding control (ratio to day 0); higher = more growth / less cytotoxicity; PDxO 3D drug screen, 96 h, CTG-3D normalised to day-0 seeding control.", "conditions": "0.1 µM; days in culture: 82", "values": [{"smiles": "CC(C)(C(=O)NCC(F)(F)C(F)(F)F)C(=O)N[C@@H]1C(=O)Nc2ccccc2-c2ccccc21", "CTG-3D luminescence at 96 h": 2.94}, {"smiles": "CCN(c1cc(C#CCN2CCOCC2)cc(C(=O)NCc2c(C)cc(C)[nH]c2=O)c1C)[C@H]1CC[C@H](N(C)CCOC)CC1", "CTG-3D luminescence at 96 h": 3.77}, {"smiles": "NC(=O)Nc1cc(-c2cccc(F)c2)sc1C(=O)N[C@H]1CCCNC1", "note": "[AZD7762]", "CTG-3D luminescence at 96 h": 2.44}, {"smiles": "O=C(/C=C/c1cccnc1)NCCCCC1CCN(C(=O)c2ccccc2)CC1", "note": "[FK866]", "CTG-3D luminescence at 96 h": 0.0661}, {"smiles": "CCc1c2c(nc3ccc(O)cc13)-c1cc3c(c(=O)n1C2)COC(=O)[C@]3(O)CC", "note": "[SN-38]", "CTG-3D luminescence at 96 h": 0.606}, {"smiles": "CCN1CCN(Cc2ccc(Nc3ncc(F)c(-c4cc(F)c5nc(C)n(C(C)C)c5c4)n3)nc2)CC1", "note": "[abemaciclib]", "CTG-3D luminescence at 96 h": 1.98}, {"smiles": "C=CCn1c(=O)c2cnc(Nc3ccc(N4CCN(C)CC4)cc3)nc2n1-c1cccc(C(C)(C)O)n1", "note": "[adavosertib]", "CTG-3D luminescence at 96 h": 2.52}]}, {"tested_on": "HCI-002", "assay": "CTG-3D luminescence at 96 h relative to day-0 seeding control (ratio to day 0); higher = more growth / less cytotoxicity; PDxO 3D drug screen, 96 h, CTG-3D normalised to day-0 seeding control.", "conditions": "0.1 µM; days in culture: 91", "values": [{"smiles": "CC(C)(C(=O)NCC(F)(F)C(F)(F)F)C(=O)N[C@@H]1C(=O)Nc2ccccc2-c2ccccc21", "CTG-3D luminescence at 96 h": 3.91}, {"smiles": "CCN(c1cc(C#CCN2CCOCC2)cc(C(=O)NCc2c(C)cc(C)[nH]c2=O)c1C)[C@H]1CC[C@H](N(C)CCOC)CC1", "CTG-3D luminescence at 96 h": 2.44}, {"smiles": "NC(=O)Nc1cc(-c2cccc(F)c2)sc1C(=O)N[C@H]1CCCNC1", "note": "[AZD7762]", "CTG-3D luminescence at 96 h": 3.87}, {"smiles": "O=C(/C=C/c1cccnc1)NCCCCC1CCN(C(=O)c2ccccc2)CC1", "note": "[FK866]", "CTG-3D luminescence at 96 h": 0.0716}, {"smiles": "CCc1c2c(nc3ccc(O)cc13)-c1cc3c(c(=O)n1C2)COC(=O)[C@]3(O)CC", "note": "[SN-38]", "CTG-3D luminescence at 96 h": 0.659}, {"smiles": "CCN1CCN(Cc2ccc(Nc3ncc(F)c(-c4cc(F)c5nc(C)n(C(C)C)c5c4)n3)nc2)CC1", "note": "[abemaciclib]", "CTG-3D luminescence at 96 h": 1.68}, {"smiles": "C=CCn1c(=O)c2cnc(Nc3ccc(N4CCN(C)CC4)cc3)nc2n1-c1cccc(C(C)(C)O)n1", "note": "[adavosertib]", "CTG-3D luminescence at 96 h": 3.35}]}]}
